Laboratory results from paper doi:10.1101/2020.02.18.955294v1 (biorxiv, 2020).

Biological target: NC1 (DGCR8 dimer) (Homo sapiens, UniProt Q8WYQ5, P351A)
Test: biochemical

Chain of NC1 (DGCR8 dimer) (Q8WYQ5 276-751 P351A): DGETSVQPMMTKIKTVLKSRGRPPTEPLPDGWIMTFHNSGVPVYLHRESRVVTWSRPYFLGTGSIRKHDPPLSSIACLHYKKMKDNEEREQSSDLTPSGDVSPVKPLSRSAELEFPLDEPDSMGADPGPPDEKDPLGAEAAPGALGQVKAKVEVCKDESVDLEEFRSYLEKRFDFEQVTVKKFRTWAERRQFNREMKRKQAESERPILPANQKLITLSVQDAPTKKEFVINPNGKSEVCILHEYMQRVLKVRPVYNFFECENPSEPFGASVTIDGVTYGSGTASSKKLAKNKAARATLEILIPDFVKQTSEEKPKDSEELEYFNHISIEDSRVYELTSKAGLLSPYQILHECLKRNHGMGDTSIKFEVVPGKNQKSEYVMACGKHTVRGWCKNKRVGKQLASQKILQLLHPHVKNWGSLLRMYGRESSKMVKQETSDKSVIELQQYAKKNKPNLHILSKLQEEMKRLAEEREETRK

C=CC1=C(C)C2=Cc3c(C=C)c(C)c4[n]3[Fe]([Cl])[n]3c(c(C)c(CCC(=O)O)c3=CC3=NC(=C4)C(C)=C3CCC(=O)O)=CC1=N2 [Fe(III) heme]
Kd: ~5 pM
